Columns and labels:
[1] = Liver microsomal stability, mouse; settings: for Rem @ MLM × 30 min: mouse liver microsomes, 1 μM compound, 0.5 mg/ml protein; for half-life at 1 μM / microsomal CLint at 1 μM: mouse, liver microsomes, pH 7.4
Protocol: (§1) The assessment of metabolic stability of testing compounds was performed using human, mouse, rat, dog and monkey liver microsomes (20 mg protein/ml). Each reaction mixture contained 42.5 μL of 0.1 M potassium phosphate buffer pH 7.4, containing respective LM protein (final concentration 0.5 mg/ml). 2.5 μL of the compound stock solution was added in it (1 μM final concentration). The reaction was initiated by the addition of 5 μL NADPH solution (final Concentration 1 mM). At different time points (0, 5, 15, and 30 minutes), samples were quenched with 200 μL of cold acetonitrile containing ISTD Propranolol. Samples were centrifuged at 3500 rpm for 20 mM at 4° C. Supernatant was subjected to LC-MS/MS analysis for quantification. Verapamil was used as a positive control.

[2] = Liver microsomal stability, rat; settings: for Rem @ RLM × 30 min: rat liver microsomes, 1 μM compound, 0.5 mg/ml protein; for half-life at 1 μM / microsomal CLint at 1 μM: rat, liver microsomes, pH 7.4
Protocol: as §1

[3] = biological target: aryl hydrocarbon receptor (AhR) (Mus musculus (Mouse), UniProt P30561); assay: AhR ligand screening: AhRE-luciferase reporter in transfected Hepa1 cells; assay type: cell-based; settings: for Fold @ 1 nM: fold change of luciferase expression at 1 nM test compound relative to vehicle (0.1% DMSO); for Fold @ 100 nM: fold change of luciferase expression at 100 nM test compound relative to vehicle (0.1% DMSO); for Fold @ 10 uM: fold change of luciferase expression at 10 uM test compound relative to vehicle (0.1% DMSO); for Fold relative to benchmark @ 100 nM: luciferase expression at 100 nM test compound relative to 100 nM benchmark compound 11-cl-BBQ
Sequence of aryl hydrocarbon receptor (AhR) (P30561 10-805): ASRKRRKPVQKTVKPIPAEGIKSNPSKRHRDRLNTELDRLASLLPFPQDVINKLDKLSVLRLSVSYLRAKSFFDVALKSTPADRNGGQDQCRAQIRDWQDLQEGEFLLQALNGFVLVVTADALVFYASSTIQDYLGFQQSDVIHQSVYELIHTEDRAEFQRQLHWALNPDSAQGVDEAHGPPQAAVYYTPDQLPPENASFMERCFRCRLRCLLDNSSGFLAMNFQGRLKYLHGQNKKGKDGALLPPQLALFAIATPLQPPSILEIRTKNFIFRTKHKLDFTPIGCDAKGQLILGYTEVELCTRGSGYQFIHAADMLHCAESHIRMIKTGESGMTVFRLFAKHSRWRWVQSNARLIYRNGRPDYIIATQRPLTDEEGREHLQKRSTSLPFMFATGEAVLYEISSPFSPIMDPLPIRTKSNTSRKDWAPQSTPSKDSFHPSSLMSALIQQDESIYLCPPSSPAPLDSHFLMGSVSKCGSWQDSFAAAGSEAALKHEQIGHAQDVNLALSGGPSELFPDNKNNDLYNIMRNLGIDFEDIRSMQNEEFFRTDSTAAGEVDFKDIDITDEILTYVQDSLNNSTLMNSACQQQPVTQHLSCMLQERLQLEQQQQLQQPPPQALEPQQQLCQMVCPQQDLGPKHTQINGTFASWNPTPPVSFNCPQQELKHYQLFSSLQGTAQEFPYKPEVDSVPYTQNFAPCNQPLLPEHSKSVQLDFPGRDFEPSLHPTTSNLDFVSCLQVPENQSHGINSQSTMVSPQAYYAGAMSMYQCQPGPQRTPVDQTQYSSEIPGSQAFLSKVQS
Sequence of aryl hydrocarbon receptor (AhR) (P53762 whole entry partner): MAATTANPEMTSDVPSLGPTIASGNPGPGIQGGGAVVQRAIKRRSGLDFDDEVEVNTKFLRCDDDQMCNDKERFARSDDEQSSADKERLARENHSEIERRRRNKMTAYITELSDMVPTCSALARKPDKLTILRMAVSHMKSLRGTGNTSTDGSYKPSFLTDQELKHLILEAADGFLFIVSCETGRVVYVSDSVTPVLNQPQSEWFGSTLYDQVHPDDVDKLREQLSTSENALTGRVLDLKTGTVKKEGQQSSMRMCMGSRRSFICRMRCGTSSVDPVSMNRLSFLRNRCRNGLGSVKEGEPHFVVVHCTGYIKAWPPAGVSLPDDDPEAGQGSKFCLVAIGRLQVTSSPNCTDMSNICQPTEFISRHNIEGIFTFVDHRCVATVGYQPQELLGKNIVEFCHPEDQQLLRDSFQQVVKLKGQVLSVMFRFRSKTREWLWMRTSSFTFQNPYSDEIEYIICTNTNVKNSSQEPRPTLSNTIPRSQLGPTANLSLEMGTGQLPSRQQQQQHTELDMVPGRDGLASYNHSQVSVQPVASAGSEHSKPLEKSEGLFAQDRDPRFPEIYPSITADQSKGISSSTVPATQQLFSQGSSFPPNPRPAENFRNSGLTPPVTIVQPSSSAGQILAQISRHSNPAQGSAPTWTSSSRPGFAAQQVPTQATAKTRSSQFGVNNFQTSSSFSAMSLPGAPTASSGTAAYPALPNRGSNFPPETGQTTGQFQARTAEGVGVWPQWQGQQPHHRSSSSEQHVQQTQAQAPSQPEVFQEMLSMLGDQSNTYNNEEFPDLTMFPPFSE
Procedure, shortened: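 Values are fold luciferase induction relative to vehicle (0.1% DMSO), read by luminometry of lysates from Hepa1 cells carrying an AhRE-driven luciferase reporter. Cells were seeded at 1×10^4 per well, grown overnight and treated with compound before lysis.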

[4] = Liver microsomal stability, human; settings: for Rem @ HLM × 30 min: human liver microsomes, 1 μM compound, 0.5 mg/ml protein; for half-life at 1 μM / microsomal CLint at 1 μM: human, liver microsomes, pH 7.4
Protocol: as §1

Row | Compound | Rem @ MLM × 30 min [1] | half-life at 1 μM [1] | microsomal CLint at 1 μM [1] | Rem @ RLM × 30 min [2] | half-life at 1 μM [2] | microsomal CLint at 1 μM [2] | Fold @ 1 nM [3] | Fold @ 100 nM [3] | Fold @ 10 uM [3] | Fold relative to benchmark @ 100 nM [3] | Rem @ HLM × 30 min [4] | half-life at 1 μM [4] | microsomal CLint at 1 μM [4]
1 | O=C(c1cccc(Cl)c1Cl)c1c[nH]c2ccc(Cl)cc12 [Compound 889] | 43.5% | 33.9 min | 40.9 µL/min/mg | 33.5% | 25.6 min | 54.2 µL/min/mg | 1 fold | 1 fold | 5 fold | 0.02 fold | 30.2% | 22.6 min | 61.2 µL/min/mg
2 | O=S(=O)(c1ccc2ccccc2c1)n1c(-c2cccc3ccccc23)nc2ccc(Cl)cc21 [Compound 786] | 22.1% | 13.4 min | 104 µL/min/mg | 25.6% | 14.8 min | 93.8 µL/min/mg | 1 fold | 31 fold | 40 fold | 1.07 fold | 27.4% | 16.1 min | 86.2 µL/min/mg
3 | O=C(c1ccc(SC(F)(F)F)cc1)c1c[nH]c2ccc(Cl)cc12 [Compound 884] | 22.2% | 13.9 min | 100 µL/min/mg | 23.1% | 14.3 min | 96.7 µL/min/mg | 1 fold | 2 fold | 16 fold | 0.04 fold | 81.2% | 98.8 min | 14 µL/min/mg
4 | O=C(c1cccc2ccccc12)C1CN(C(=O)c2ccccc2)c2ccc(Cl)cc21 (centres unmarked) [Compound 521] | 64.6% | 60.9 min | 23 µL/min/mg | 45.5% | 24.8 min | 56 µL/min/mg | 1 fold | 1 fold | 1 fold | 0.07 fold | 58.0% | 40.3 min | 34 µL/min/mg
5 | O=C(c1ccc(Cl)cc1Cl)c1c[nH]c2ccc(Cl)cc12 [Compound 890] | 39.3% | 28.2 min | 49.1 µL/min/mg | 37.4% | 29 min | 47.8 µL/min/mg | 1 fold | 2 fold | 17 fold | 0.04 fold | 44.7% | 35.2 min | 39.4 µL/min/mg
6 | CN(C)c1ccc(C(=O)c2c[nH]c3ccc(Cl)cc23)cc1 [Compound 891] | 52.4% | 36.3 min | 38.2 µL/min/mg | 45.2% | 31 min | 44.7 µL/min/mg | 1 fold | 1 fold | 21 fold | 0.02 fold | 54.3% | 42.4 min | 32.7 µL/min/mg
7 | O=C(c1ccccc1)c1c[nH]c2ccc(Cl)cc12 [Compound 892] | 36.7% | 21 min | 66.1 µL/min/mg | 64.9% | 57 min | 24.3 µL/min/mg | 1 fold | 1 fold | 15 fold | 0.02 fold | 24.7% | 15.3 min | 90.7 µL/min/mg
8 | O=S(=O)(c1ccc2ccccc2c1)n1c(-c2cccc3ccccc23)nc2cc(Cl)ccc21 [Compound 785] | 49.3% | 29.4 min | 47.2 µL/min/mg | 57.1% | 36.5 min | 37.9 µL/min/mg | 1 fold | 16 fold | 44 fold | 0.55 fold | 54.2% | 33.9 min | 40.9 µL/min/mg
9 | Clc1ccc2c(c1)nc1n2Cc2ccccc2-1 [Compound 522, 7-chloro-11H-benzo[4,5]imidazo[2,1-a]isoindole] | – | – | – | – | – | – | 1 fold | 1 fold | 18 fold | 0.07 fold | – | – | –
10 | Clc1ccc2nc(-c3cccc4ccccc34)n(Cc3ccncc3)c2c1 [Compound 877] | – | – | – | – | – | – | 1 fold | 3 fold | 42 fold | 0.06 fold | – | – | –
11 | O=C(c1cccc2ccccc12)c1c[nH]c2ccc(Cl)cc12 [Compound 364, (5-chloro-1H-indol-3-yl)(naphthalen-1-yl)methanone] | – | – | – | – | – | – | 1 fold | 2 fold | 11 fold | 0.05 fold | – | – | –
12 | COc1ccc(C(=O)c2c[nH]c3ccc(Cl)cc23)cc1 [Compound 894] | 54.5% | 37.6 min | 36.9 µL/min/mg | 58.1% | 43 min | 32.3 µL/min/mg | 1 fold | 1 fold | 7 fold | 0.02 fold | 57.9% | 45.3 min | 30.6 µL/min/mg
13 | Cc1ccc(S(=O)(=O)n2c(-c3cccc4ccccc34)nc3cc(F)ccc32)cc1 [Compound 631, 5-fluoro-2-(naphthalen-1-yl)-1-tosyl-1H-benzo[d]imidazole] | – | – | – | – | – | – | 1 fold | 1 fold | 7 fold | 0.11 fold | – | – | –

Continued, values first:

Row | Rem @ MLM × 30 min [1] | half-life at 1 μM [1] | microsomal CLint at 1 μM [1] | Rem @ RLM × 30 min [2] | half-life at 1 μM [2] | microsomal CLint at 1 μM [2] | Fold @ 1 nM [3] | Fold @ 100 nM [3] | Fold @ 10 uM [3] | Fold relative to benchmark @ 100 nM [3] | Rem @ HLM × 30 min [4] | half-life at 1 μM [4] | microsomal CLint at 1 μM [4] | Compound
14 | 18.0% | 12.1 min | 115 µL/min/mg | 43.1% | 24.4 min | 56.8 µL/min/mg | 1 fold | 20 fold | 24 fold | 0.8 fold | 44.4% | 24.6 min | 56.3 µL/min/mg | O=S(=O)(c1ccc(C(F)(F)F)cc1)n1c(-c2cccc3ccccc23)nc2cc(Cl)ccc21 [Compound 781]
15 | 23.9% | 14.6 min | 94.7 µL/min/mg | 27.5% | 16.3 min | 84.9 µL/min/mg | 1 fold | 15 fold | 20 fold | 0.6 fold | 28.3% | 16.4 min | 84.6 µL/min/mg | CCc1ccc(S(=O)(=O)n2c(-c3cccc4ccccc34)nc3ccc(Cl)cc32)cc1 [Compound 776]
16 | 28.2% | 19.3 min | 71.9 µL/min/mg | 45.5% | 31.9 min | 43.5 µL/min/mg | 1 fold | 21 fold | 28 fold | 0.84 fold | 52.7% | 36.3 min | 38.2 µL/min/mg | O=C(C1CC1)n1c(-c2cccc3ccccc23)nc2ccc(Cl)cc21 [Compound 774]
17 | – | – | – | – | – | – | 1 fold | 16 fold | 22 fold | 0.62 fold | – | – | – | O=C(c1ccc(F)c(F)c1)n1c(-c2cccc3ccccc23)nc2ccc(OC(F)(F)F)cc21 [Compound 700]
18 | – | – | – | – | – | – | 1 fold | 26 fold | 30 fold | 1 fold | – | – | – | Cc1ccc(C(=O)n2c(-c3cccc4ccccc34)nc3ccc(Cl)cc32)cc1 [Compound 698]
19 | – | – | – | – | – | – | 1 fold | 1 fold | 4 fold | 0.03 fold | – | – | – | O=C(c1ccc2nc(-c3cccc4ccccc34)n(S(=O)(=O)c3ccc(C(F)(F)F)cc3)c2c1)N1CCOCC1 [Compound 1370]
20 | – | – | – | – | – | – | 1 fold | 2 fold | 3 fold | 0.07 fold | – | – | – | COC(=O)c1ccc2nc(-c3cccc4ccccc34)n(S(=O)(=O)c3ccc(C(F)(F)F)cc3)c2c1 [Compound 1402]
21 | – | – | – | – | – | – | 1 fold | 1 fold | 15 fold | 0.11 fold | – | – | – | COc1ccc(-c2nc3cc(Cl)ccc3n2C(=O)c2ccc(F)c(F)c2)c2ccccc12 [Compound 645]
22 | – | – | – | – | – | – | 1 fold | 1 fold | 27 fold | 0.11 fold | – | – | – | O=C(c1ccc(F)c(F)c1)n1c(-c2c3ccccc3cc3ccccc23)nc2ccc(Cl)cc21 [Compound 642]
23 | – | – | – | – | – | – | 1 fold | 3 fold | 88 fold | 0.1 fold | – | – | – | Cn1ncc2c(-c3nc4cc(Cl)ccc4n3C(=O)c3ccc(F)c(F)c3)cccc21 [Compound 860]
